This is an account of results in ChEMBL document CHEMBL1909046, “DrugMatrix in vitro pharmacology data”.

The nature of test [1]: DRUGMATRIX: Leukotriene, BLT (LTB4) radioligand binding (ligand: [3H]LTB4). The settings on record: u-937; Not Active = under 50% inhibition at 10 µM. Type of test: cell membranes, Membrane.
The nature of test [2]: DRUGMATRIX: Tumor Necrosis Factor (TNF), Non-Selective radioligand binding (ligand: [125I] TNF-alpha). Type of test: cell membranes, Membrane. The settings on record: u-937; Not Active = under 50% inhibition at 10 µM.
For the next test, the target named is T1, Neutrophil elastase (Homo sapiens, UniProt P08246).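 Note: inhibition of neutrophil elastase enzyme activity, measured with a p-nitroanilide-linked peptide substrate; in other assays of this panel Not Active means under 50% inhibition at 10 µM.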
T1 sequence (P08246 whole entry): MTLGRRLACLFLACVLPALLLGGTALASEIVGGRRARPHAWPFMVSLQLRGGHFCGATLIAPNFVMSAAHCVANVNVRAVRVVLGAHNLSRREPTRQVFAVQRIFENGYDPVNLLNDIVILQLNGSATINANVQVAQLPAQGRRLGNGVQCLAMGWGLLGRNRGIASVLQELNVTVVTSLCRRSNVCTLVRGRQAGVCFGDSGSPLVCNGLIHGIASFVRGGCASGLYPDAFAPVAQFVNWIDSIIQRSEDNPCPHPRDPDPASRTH
Type of test: tissue-based.

A further test has as its target Glycine receptor (Rattus norvegicus, UniProt P22771+P24524+P07727+P20781). Type of test: cell membranes, Wistar, Spinal cord, Membrane. Note: in other assays of this panel Not Active means under 50% inhibition at 10 µM.
Test [3] has as its target T2, Nitric oxide synthase, inducible (Mus musculus, UniProt P29477).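 Note: inhibition of iNOS enzyme activity measured with L-arginine as substrate; in other assays of this panel Not Active means under 50% inhibition at 10 µM.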
T2 sequence (P29477 whole entry): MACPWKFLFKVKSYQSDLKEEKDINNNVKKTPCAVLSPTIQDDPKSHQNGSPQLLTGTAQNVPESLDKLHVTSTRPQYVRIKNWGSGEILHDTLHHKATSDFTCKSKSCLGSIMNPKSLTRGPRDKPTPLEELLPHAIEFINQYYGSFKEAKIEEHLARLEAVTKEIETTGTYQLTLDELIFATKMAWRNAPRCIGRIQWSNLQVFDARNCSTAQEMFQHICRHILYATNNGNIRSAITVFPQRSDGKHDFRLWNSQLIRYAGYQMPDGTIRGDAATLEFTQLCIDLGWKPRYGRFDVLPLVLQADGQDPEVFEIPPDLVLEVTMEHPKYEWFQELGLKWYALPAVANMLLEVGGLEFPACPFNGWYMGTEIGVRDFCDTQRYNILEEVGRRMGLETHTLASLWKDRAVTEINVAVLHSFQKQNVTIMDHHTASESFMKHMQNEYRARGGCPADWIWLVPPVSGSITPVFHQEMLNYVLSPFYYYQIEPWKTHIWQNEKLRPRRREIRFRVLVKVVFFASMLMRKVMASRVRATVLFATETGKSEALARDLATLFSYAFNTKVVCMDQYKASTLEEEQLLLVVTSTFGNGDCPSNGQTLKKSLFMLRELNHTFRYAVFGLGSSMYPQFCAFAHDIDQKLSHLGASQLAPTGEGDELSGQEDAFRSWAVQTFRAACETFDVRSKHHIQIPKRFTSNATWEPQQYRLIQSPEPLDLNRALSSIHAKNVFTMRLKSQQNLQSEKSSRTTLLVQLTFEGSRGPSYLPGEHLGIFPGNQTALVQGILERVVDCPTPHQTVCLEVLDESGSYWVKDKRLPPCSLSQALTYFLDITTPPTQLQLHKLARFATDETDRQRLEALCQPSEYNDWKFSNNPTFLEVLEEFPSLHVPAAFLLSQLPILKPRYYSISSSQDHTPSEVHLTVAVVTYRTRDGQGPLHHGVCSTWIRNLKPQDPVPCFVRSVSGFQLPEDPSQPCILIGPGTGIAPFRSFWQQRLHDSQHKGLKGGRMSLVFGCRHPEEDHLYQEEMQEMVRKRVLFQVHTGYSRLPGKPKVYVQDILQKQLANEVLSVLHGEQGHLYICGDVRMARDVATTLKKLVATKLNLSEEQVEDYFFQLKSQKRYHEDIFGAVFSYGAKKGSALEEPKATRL
Also noted: species or system Escherichia coli.

In test [4] the target is 5-hydroxytryptamine receptor 6 (Homo sapiens, UniProt P50406). Type of test: cell membranes, HeLa, Membrane. To be noted: hela. Note: in other assays of this panel Not Active means under 50% inhibition at 10 µM.
The next test deals with T3, Progesterone receptor (Bos taurus, UniProt Q690N0).
T3 sequence (Q690N0 whole entry): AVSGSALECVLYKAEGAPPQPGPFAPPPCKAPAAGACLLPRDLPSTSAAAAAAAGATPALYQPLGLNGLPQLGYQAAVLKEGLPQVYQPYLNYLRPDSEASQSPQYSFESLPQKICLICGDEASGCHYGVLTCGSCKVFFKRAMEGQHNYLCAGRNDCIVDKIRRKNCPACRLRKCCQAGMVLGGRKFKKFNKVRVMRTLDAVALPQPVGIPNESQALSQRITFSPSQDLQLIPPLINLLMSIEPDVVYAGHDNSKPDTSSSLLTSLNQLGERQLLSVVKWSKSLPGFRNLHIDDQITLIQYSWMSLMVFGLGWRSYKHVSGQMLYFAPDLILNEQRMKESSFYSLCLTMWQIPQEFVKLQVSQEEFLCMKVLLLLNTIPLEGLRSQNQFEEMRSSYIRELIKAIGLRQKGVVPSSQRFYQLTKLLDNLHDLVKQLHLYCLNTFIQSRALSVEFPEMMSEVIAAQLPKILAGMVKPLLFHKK
Put plainly: DRUGMATRIX: Progesterone radioligand binding (ligand: [3H] R-5020). Type of test: tissue-based, Uterus. The settings on record: Not Active = under 50% inhibition at 10 µM.

Sequence of 5-hydroxytryptamine receptor 6 (P50406 whole entry): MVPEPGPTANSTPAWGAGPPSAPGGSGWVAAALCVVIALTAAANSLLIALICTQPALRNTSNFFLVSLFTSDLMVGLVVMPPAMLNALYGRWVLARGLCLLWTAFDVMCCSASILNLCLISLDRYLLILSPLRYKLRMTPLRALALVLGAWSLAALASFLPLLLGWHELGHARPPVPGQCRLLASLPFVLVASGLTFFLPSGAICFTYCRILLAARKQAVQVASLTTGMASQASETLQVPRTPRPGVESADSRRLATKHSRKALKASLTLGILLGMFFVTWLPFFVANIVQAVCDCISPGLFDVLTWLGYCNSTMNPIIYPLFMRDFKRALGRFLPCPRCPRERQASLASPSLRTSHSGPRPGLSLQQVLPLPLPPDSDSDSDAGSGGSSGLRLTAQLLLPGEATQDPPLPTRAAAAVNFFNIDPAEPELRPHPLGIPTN

Take `c1ccc(Cn2ccnc2)cc1`: the IC50 entry (in test [1]; in test [2]; against Neutrophil elastase; against Glycine receptor; in test [3]; in test [4]) was “Not Active” throughout. The IC50 result on Progesterone receptor was “Not Active”. The Ki entry in test [1] and in test [2] was “Not Active” throughout.

Consider `C[N+](C)(C)CCOP(=O)([O-])OC[C@H](O)CO`, for which the IC50 result (in test [1]; in test [2]; against Neutrophil elastase; against Glycine receptor; in test [3]; in test [4]) was “Not Active” each time. Besides, at Progesterone receptor, the IC50 entry was “Not Active”. The Ki result in test [1] and in test [2] was “Not Active” each time.

For `NC(=O)CN1CCCC1=O`, the IC50 result (in test [1]; in test [2]; at Neutrophil elastase; on Glycine receptor; in test [3]; in test [4]) was “Not Active” each time. In addition, on Progesterone receptor, the IC50 entry was “Not Active”. The inhibitory constant (Ki) result in test [1] and in test [2] was “Not Active” throughout.

Take `OC[C@H]1OC2C3[C@@H](CO)OC(O[C@H]4[C@H](O)[C@@H](O)[C@@H](O[C@H]5[C@H](O)[C@@H](O)[C@@H](O[C@H]6[C@H](O)[C@@H](O)[C@@H](O[C@H]7[C@H](O)[C@@H](O)[C@@H](O[C@H]8[C@H](O)[C@@H](O)[C@@H](O[C@H]9[C@H](O)[C@@H](O)C(OC1[C@H](O)[C@H]2O)O[C@@H]9CO)O[C@@H]8CO)O[C@@H]7CO)O[C@@H]6CO)O[C@@H]5CO)O[C@@H]4CO)[C@H](O)[C@H]3O`: the IC50 result (in test [1]; in test [2]; at Neutrophil elastase; on Glycine receptor; in test [3]; in test [4]) was “Not Active” each time. In addition, the IC50 entry at Progesterone receptor is “Not Active”. The Ki entry in test [1] and in test [2] was “Not Active” in each case.

For the molecule `CN(CCOc1ccc(C[C@H](Nc2ccccc2C(=O)c2ccccc2)C(=O)O)cc1)c1ccccn1`, the IC50 result (in test [1]; in test [2]; against Neutrophil elastase; at Glycine receptor; in test [3]; in test [4]) was “Not Active” in each case. Further, the IC50 at Progesterone receptor (read-out: IC50) worked out at 30.6 µM. Moreover, the Ki entry in test [1] was “Not Active”; in test [2], “Not Active”; at Progesterone receptor (read-out: Ki) it was 3.99 µM.

`O=c1[nH]c2ccccc2c2ccccc12`: the IC50 result (in test [1]; in test [2]; on Neutrophil elastase; against Glycine receptor; in test [3]; in test [4]) was “Not Active” each time. Besides, the IC50 entry on Progesterone receptor is listed as “Not Active”. The Ki entry in test [1] and in test [2] was “Not Active” in each case.

With `CO[C@H]1O[C@@H]2O[C@@]3(C)CC[C@H]4[C@H](C)CC[C@@H]([C@H]1C)[C@@]24OO3`, the IC50 entry (in test [1]; in test [2]; on Neutrophil elastase; against Glycine receptor; in test [3]; in test [4]) was “Not Active” throughout. In addition, the IC50 result at Progesterone receptor was “Not Active”. Moreover, the Ki entry in test [1] and in test [2] was “Not Active” throughout.

For the molecule `Nc1ccc(Cc2ccc(N)cc2)cc1`, the IC50 result (in test [1]; in test [2]; on Neutrophil elastase; on Glycine receptor; in test [3]; in test [4]) was “Not Active” throughout. In addition, on Progesterone receptor, the IC50 result is “Not Active”. For the same molecule, the Ki entry in test [1] and in test [2] was “Not Active” each time.

With `C=C(Cl)Cl` [1,1-DICHLOROETHENE], the IC50 entry (in test [1]; in test [2]; at Neutrophil elastase; against Glycine receptor; in test [3]; in test [4]) was “Not Active” each time. The IC50 entry on Progesterone receptor is reported as “Not Active”. For the same molecule, the Ki result in test [1] and in test [2] was “Not Active” throughout.

`CC(=O)Nc1ccc2c(c1)Cc1ccccc1-2` [2-ACETYLAMINOFLUORENE]: the IC50 entry (in test [1]; in test [2]; against Neutrophil elastase; against Glycine receptor; in test [3]; in test [4]) was “Not Active” each time. For the same molecule, on Progesterone receptor, the IC50 result was “Not Active”. In addition, the inhibitory constant (Ki) entry in test [1] and in test [2] was “Not Active” in each case.

`O=C(Nc1ccc(Cl)c(Cl)c1)c1cc(Cl)cc(Cl)c1O` [3,3',4',5-TETRACHLOROSALICYLANILIDE]: the IC50 result (in test [1]; in test [2]; against Neutrophil elastase; on Glycine receptor; in test [3]; in test [4]) was “Not Active” in each case. The IC50 result on Progesterone receptor is reported as “Not Active”. Also, the Ki result in test [1] and in test [2] was “Not Active” throughout.

Turning to `O=C(O)COC(=O)Cc1ccccc1Nc1c(Cl)cccc1Cl` [ACECLOFENAC], the IC50 entry (in test [1]; in test [2]; against Neutrophil elastase; against Glycine receptor; in test [3]; in test [4]) was “Not Active” in each case. Also, the IC50 entry on Progesterone receptor is “Not Active”. The Ki result in test [1] and in test [2] was “Not Active” each time.

With `CCN1C[C@]2(COC)[C@H](O)C[C@H](OC)[C@@]34[C@@H]5C[C@@]6(O)[C@H](OC(=O)c7ccccc7)[C@@H]5[C@@](OC(C)=O)([C@@H]([C@H](OC)[C@H]23)[C@@H]14)[C@@H](O)[C@@H]6OC` [ACONITINE], the IC50 result (in test [1]; in test [2]; against Neutrophil elastase; against Glycine receptor; in test [3]; in test [4]) was “Not Active” throughout. Also, the IC50 entry at Progesterone receptor was “Not Active”. Also, the Ki entry in test [1] and in test [2] was “Not Active” each time.

On to `CCO` [ALCOHOL], for which the IC50 entry (in test [1]; in test [2]; against Neutrophil elastase; against Glycine receptor; in test [3]; in test [4]) was “Not Active” in each case. For the same molecule, the IC50 result at Progesterone receptor is “Not Active”. Further, the Ki entry in test [1] and in test [2] was “Not Active” each time.

For the molecule `Oc1ccccc1` [PHENOL], the IC50 result (in test [1]; in test [2]; against Neutrophil elastase; against Glycine receptor; in test [3]; in test [4]) was “Not Active” each time. Also, the Ki entry in test [1] and in test [2] was “Not Active” each time.
